From PMC4832243, “Discovery of Potent VEGFR-2 Inhibitors based on Furopyrimidine and Thienopyrimidne Scaffolds as Cancer Targeting Agents” (Scientific Reports, 2016) come the findings set out here.

Series [1] has as its target c-Kit (Homo sapiens, UniProt P10721). Kind of series: In vitro multiple-kinase inhibition assay, c-Kit (ADP-Glo). In kind it is biochemical. As for the experimental part: (§1) In vitro multiple-kinase inhibition assay. […] Kinase enzymatic activity of the tested compounds was evaluated against a reference kinase inhibitor at 10 μM (Table 2).
(§2) The multiple kinases activity at single dose concentration of 10 μM was performed, c-Kit, c-Raf, c-Src, RET served as the enzyme source. […] Kinase-Glo Plus Luminescence kinase assay kit (Promega#V3772), ADP-Glo Luminescence assay kit was used for c-kit assay (Supplementary). […]
(§3) mM MgCl2, 0.1 mg/ml BSA, 1 mM DTT, 10 µM ATP, Kinase substrate and VEGFR. After the enzymatic reaction, 50 µl of Kinase-Glo Plus Luminescence kinase assay solution (Promega) was added to each reaction and incubate the plate for 5 minutes at room temperature.
(§4) Luminescence signal was measured using a BioTek Synergy 2 microplate reader. VEGFR activity assays were performed in duplicate at each concentration.
(§5) The luminescence data were analyzed using the computer software, Graphpad Prism. The difference between luminescence intensities in the absence of VEGFR (Lut) and in the presence of VEGFR (Luc) was defined as 100 % activity (Lut – Luc). Using luminescence signal (Lu) in the presence of the compound, % activity was calculated as:
(§6) % activity = {(Lut - Lu)/(Lut - Luc)}×100%, where Lu= the luminescence intensity in the […]
(§7) IC50 determination for inhibitor against VEGFR was calculated. The values of % activity versus a series of compound concentrations (1 nM - 10 nM - 100 nM - 1 µM - 10 µM) were then […]
(§8) or Hill coefficient. The IC50 value was determined by the concentration causing a half-maximal […]
(§9) In vitro multiple-kinase inhibition assay
The assay was performed using the same conditions for VEGFR-2 activity assay (section 5.2.1.1). The assays for c-Kit was an exception, it was performed using ADP-Glo Kinase assay reagents (Promega). It measures kinase activity by quantitating the ADP amount produced from the enzymatic reaction. The luminescent signal from the assay is correlated with the amount of ADP present and is directly correlated with the amount of kinase activity. Other conditions are same to the previous section except the final reaction volume was reduced to 25 µl. After the 40 min kinase reaction at 30 °C, 25 µl of ADP-Glo reagent was added and incubated for 45 min at room temperature followed by another 50 min incubation with 50 µl of Kinase detection mixture.
(§10) Luminescence signal was measured using a BioTek Synergy 2 microplate reader […]
(§11) The luminescence data were analyzed using the same computer software and the same protocol

Series [2] deals with RET (Homo sapiens, UniProt P07949). Kind of series: In vitro multiple-kinase inhibition assay, RET. In kind it is biochemical. As for the experimental part:
as §1, §2, §3, §4, §5, §6, §7, §8, §9, §10, §11

Series [3] addresses c-Raf (Homo sapiens, UniProt P04049). Description: In vitro multiple-kinase inhibition assay, c-Raf. It is filed as biochemical. As to the method: as §1, §2, §3, §4, §5, §6, §7, §8, §9, §10, §11
Series [4] deals with c-Src (Homo sapiens, UniProt P12931). Kind of series: In vitro multiple-kinase inhibition assay, c-Src. In kind it is biochemical. As for the experimental part: as §1, §2, §3, §4, §5, §6, §7, §8, §9, §10, §11
c-Src, sequence (P12931 whole entry, species assumed): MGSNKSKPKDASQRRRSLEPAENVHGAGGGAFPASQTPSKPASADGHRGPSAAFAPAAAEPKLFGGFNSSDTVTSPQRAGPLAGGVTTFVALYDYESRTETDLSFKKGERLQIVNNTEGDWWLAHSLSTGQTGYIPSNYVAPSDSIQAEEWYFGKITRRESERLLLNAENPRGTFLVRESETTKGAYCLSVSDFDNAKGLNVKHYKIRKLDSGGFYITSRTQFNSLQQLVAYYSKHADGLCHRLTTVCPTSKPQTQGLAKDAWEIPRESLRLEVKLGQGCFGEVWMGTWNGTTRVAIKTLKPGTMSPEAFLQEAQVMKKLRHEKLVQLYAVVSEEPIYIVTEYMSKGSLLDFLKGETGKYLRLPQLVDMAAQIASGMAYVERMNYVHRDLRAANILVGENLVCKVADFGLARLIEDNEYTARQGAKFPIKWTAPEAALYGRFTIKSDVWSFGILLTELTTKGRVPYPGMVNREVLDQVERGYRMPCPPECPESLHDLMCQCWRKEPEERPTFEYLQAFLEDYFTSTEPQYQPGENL
The target of series [5] is phospho-VEGFR-2 (Tyr951) (Mus musculus, UniProt P35918). Kind of series: Immunohistochemistry of EAC solid tumor sections, phospho-VEGFR-2. The settings on record: oral treatment of EAC-bearing mice.
phospho-VEGFR-2 (Tyr951), sequence (P35918 20-1345): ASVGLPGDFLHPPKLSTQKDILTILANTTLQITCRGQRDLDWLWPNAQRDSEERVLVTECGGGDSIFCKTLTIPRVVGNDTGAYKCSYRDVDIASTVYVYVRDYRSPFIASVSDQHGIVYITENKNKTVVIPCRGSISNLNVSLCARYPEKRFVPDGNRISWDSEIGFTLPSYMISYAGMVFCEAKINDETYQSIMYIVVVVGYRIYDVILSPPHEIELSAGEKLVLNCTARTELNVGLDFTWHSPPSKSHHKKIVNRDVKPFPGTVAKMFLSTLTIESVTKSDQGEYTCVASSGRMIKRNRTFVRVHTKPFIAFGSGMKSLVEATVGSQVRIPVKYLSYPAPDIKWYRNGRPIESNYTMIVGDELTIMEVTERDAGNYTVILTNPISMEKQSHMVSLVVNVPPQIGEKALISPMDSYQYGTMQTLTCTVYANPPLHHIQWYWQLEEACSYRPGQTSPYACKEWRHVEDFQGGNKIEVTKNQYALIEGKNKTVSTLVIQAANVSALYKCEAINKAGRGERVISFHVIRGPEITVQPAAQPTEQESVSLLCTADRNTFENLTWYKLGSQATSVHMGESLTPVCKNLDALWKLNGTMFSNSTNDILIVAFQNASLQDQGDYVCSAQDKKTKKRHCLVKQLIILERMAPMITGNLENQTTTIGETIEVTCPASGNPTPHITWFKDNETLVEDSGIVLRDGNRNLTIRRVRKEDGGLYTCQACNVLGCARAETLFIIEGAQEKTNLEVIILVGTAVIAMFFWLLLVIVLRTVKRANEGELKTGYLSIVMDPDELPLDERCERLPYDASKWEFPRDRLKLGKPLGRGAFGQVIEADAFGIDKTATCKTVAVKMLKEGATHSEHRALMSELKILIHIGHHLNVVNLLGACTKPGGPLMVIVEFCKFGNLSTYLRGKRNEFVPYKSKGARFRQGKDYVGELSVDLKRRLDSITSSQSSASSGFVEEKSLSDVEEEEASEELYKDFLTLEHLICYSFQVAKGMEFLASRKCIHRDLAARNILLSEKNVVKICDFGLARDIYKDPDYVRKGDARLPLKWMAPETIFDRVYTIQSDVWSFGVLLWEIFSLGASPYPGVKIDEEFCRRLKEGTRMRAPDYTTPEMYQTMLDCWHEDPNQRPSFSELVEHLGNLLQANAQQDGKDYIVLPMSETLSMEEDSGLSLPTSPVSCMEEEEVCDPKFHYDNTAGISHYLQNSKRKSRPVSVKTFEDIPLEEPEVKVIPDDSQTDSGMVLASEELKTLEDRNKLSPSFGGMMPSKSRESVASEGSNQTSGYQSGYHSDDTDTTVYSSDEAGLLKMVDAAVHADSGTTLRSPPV
Series [6] deals with VEGF-induced vascular permeability (Evans Blue extravasation). Description: Miles vascular permeability assay. Also on record: species or system mice. The note with it: in vivo; 10 mg/kg (Fig. 15). As to the method:
Miles Vascular Permeability Assay. One to two days prior to the experiment, mice were shaved to expose the skin. Mice were anesthetized with intra-peritoneal injection of Avertin. A sterile solution of 1% Evans Blue (EB) in PBS was prepared and 100 μl was injected IV into the tail vein, using a needle (small gauge, 27–30) at a 10–15 degree angle. The animals were then left for (30–60) min. VEGF (50 μl of 1 ng/μl) and 50 μl of PBS with 0.05% gelatin were injected intradermally using a 30-gauge needle into the skin overlying the back. After 20 min, the animals were sacrificed by cervical dislocation that is recommended to limit significant interference with vascular permeability. The skin was opened, exposed and representative pictures were taken to assess the intensity of EB […]. The Formamide/EB mixture was centrifuged and supernatant absorbance was measured at 600 nm (Shimadzu Spectrophotometer, UV-1601; Japan). extravasation was calculated as ng EB per mg tissue.

For series [7], the system named is active caspase 3. Kind of series: Immunohistochemistry of EAC solid tumor sections, active caspase 3. The settings on record: oral treatment of EAC-bearing mice.
A short description of series [8]: Toxicity: vital organs' indices and histopathology in EAC solid tumor bearing mice. It is filed as in vivo, Swiss albino mice. The settings on record: for Brain Index / Heart Index / Kidney Index / Liver Index: mean ± SD (n = 6).
Series [9] has as its system Ehrlich ascites carcinoma (EAC) solid tumor. Description: In vivo anticancer activity, EAC solid tumor murine model. The settings on record: for TGI (%): once daily for 8 consecutive days; for Histopathological examination of EAC tumor sections (necrosis): hematoxylin-eosin, 40x. More on the design: species or system Swiss albino mice. As for the experimental part:
Animals. Female Swiss albino mice weighing 15–20 g were used in the present study. They were obtained from the animal breeding laboratory, National Cancer Institute (NCI), Cairo University, Egypt. Animals were kept in our animal facility, faculty of pharmacy, Ain Shams university at 25 ± 2 °C and a relative humidity of 40–45% with alternative day and night cycles of 12 h each. Animals had free access to pellet food and water ad libitum. Standard diet pellets (El-Nasr, Abu Zaabal, Egypt) contained not less than 20% protein, 5% fiber, 3.5% fat, 6.5% ash and a vitamin mixture. Animal care and experiments were conducted in accordance with the protocols approved by the Ethics Research Committee, Faculty of Pharmacy, Ain Shams University, following the Institutional Animal Care and Use Committee guidelines.
Tumor cells preparation and transplantation. Ehrlich ascites carcinoma (EAC) cells were obtained from NCI, Cairo University, Egypt. EAC cells were maintained in the ascitic form in Swiss albino mice by intraperitoneal transplantation of each mouse every 10 days. Ascitic fluid was drawn from tumor-bearing mice at the log phase (7–8th day of tumor bearing) of the tumor cells. The freshly drawn fluid was diluted with ice-cold sterile isotonic saline. 200 μl tumor cell suspension containing 2 × 10^6 tumor cells were then subcutaneously injected in each mouse.
Experimental design. Swiss albino mice were divided into six groups (n = 6 per group).
Evaluation of effectiveness. Tumor growth curve was drawn according to the change in tumor volume from first day of treatment (day 0) till day 7. Longest and shortest diameters of the solid tumor were monitored using a digital vernier caliper. Tumor volume (TV) of each animal was calculated using the following formula: […]
Tumor growth inhibition (TGI) was calculated as follows.
RTV = (Tumor volume at the day of measurement)/Tumor volume at the initial day.
Histopathological Examination
thickness by slidge microtome.
graded ethanol solutions.

c-Kit, sequence (P10721 26-976): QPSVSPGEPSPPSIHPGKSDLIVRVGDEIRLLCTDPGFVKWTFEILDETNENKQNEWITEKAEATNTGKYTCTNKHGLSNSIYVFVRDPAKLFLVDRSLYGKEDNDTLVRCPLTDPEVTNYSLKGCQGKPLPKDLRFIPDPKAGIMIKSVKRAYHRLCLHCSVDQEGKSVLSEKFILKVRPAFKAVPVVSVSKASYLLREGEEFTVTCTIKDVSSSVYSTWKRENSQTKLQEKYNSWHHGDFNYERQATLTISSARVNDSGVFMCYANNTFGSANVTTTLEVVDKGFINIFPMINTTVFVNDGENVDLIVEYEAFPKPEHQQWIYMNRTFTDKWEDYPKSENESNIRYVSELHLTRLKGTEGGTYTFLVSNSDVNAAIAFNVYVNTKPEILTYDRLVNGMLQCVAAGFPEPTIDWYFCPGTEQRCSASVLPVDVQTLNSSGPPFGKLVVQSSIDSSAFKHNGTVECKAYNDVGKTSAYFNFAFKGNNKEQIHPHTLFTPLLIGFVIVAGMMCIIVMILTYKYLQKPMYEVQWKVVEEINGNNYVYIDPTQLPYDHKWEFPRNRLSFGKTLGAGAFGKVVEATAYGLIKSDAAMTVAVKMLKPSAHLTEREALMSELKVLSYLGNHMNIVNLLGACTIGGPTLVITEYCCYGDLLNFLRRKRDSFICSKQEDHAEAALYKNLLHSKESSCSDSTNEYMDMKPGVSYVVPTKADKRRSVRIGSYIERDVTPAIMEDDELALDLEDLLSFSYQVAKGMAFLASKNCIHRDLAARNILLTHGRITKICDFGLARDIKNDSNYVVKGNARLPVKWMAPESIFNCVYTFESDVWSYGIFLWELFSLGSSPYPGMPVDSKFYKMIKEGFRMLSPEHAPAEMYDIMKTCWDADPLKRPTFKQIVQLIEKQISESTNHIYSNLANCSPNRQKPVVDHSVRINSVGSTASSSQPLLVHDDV
c-Raf, sequence (P04049 whole entry, species assumed): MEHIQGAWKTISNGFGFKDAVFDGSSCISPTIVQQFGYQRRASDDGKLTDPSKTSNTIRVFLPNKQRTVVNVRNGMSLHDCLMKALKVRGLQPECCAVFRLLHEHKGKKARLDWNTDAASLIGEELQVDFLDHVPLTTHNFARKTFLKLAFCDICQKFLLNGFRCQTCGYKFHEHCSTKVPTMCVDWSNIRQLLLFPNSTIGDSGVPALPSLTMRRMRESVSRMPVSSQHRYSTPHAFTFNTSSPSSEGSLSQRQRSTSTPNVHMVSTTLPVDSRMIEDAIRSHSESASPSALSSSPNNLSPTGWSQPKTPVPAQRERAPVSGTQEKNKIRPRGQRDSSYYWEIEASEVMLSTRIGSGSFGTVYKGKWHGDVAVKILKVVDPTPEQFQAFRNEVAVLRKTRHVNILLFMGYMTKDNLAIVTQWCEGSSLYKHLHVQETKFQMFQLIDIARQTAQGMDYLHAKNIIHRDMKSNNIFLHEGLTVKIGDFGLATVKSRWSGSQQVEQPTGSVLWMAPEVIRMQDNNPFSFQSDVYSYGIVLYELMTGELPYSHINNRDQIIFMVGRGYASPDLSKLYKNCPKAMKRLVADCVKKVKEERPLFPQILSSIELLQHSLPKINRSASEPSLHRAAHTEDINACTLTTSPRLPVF
RET, sequence (P07949 29-1114, species assumed): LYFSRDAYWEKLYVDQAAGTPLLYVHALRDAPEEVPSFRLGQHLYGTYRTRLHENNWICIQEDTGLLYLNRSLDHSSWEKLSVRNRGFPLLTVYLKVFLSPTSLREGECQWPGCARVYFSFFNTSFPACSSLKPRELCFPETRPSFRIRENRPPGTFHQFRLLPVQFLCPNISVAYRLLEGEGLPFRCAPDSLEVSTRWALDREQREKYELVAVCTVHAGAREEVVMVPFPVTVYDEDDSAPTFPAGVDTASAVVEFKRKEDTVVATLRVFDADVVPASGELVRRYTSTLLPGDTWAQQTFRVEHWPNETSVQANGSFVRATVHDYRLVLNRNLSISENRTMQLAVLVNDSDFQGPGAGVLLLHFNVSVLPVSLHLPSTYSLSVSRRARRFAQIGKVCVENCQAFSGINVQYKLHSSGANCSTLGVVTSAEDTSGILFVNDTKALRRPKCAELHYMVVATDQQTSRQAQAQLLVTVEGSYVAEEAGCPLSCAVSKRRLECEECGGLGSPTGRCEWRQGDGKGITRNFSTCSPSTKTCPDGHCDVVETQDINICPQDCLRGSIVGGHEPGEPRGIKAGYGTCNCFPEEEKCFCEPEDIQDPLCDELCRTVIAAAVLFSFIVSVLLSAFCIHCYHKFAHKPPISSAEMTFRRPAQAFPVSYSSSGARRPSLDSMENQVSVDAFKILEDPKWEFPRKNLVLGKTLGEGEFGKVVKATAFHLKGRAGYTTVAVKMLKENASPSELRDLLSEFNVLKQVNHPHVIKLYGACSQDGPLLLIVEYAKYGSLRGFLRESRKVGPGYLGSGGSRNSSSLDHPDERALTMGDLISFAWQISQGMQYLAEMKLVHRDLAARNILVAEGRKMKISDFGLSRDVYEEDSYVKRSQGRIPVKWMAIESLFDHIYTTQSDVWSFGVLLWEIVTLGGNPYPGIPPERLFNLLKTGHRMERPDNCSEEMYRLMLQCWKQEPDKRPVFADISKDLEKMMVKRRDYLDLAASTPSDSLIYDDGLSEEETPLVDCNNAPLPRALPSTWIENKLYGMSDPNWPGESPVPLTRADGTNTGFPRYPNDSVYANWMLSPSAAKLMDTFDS

As for `COc1cccc(NC(=O)Nc2ccc(Oc3ncnc4sc5c(c34)CCCC5)cc2)c1` [Compound 21c], the inhibition at 10 µM was 83% in series [1], 91% in [2], 26% in [3] and 8% in series [4].
Turning to `Cc1cccc(NC(=O)Nc2ccc(Oc3ncnc4sc5c(c34)CCCC5)cc2)c1` [Compound 21b], the inhibition at 10 µM is 81% in series [1], 87% in [2], 35% in [3] and 7% in [4]. In addition, the “VEGFR-2 phosphorylation in EAC solid tumor” value in series [5] is “decreased VEGFR-2 phosphoryaltion”. The “Antiangiogenic effect in Miles vascular permeability assay” value in series [6] is listed as “confirmed the antiangiogenic effects”. For the same compound, the “Active caspase 3 levels in EAC solid tumor” value in series [7] is “increased active caspase 3 levels”. For the same compound, the “Brain Index” value is given as 0.0164 ± 0.004 in series [8] (5 mg/kg/day po) and 0.0167 ± 0.004 in series [8] (10 mg/kg/day po). Also, the figures for the “Heart Index” value in series [8] (5 mg/kg/day po) and in series [8] (10 mg/kg/day po) were 0.0048 ± 0.0014 and 0.0046 ± 0.0017, respectively. Besides, the figures for the “Kidney Index” value in series [8] (5 mg/kg/day po) and in series [8] (10 mg/kg/day po) were 0.012 ± 0.003 and 0.011 ± 0.003, respectively. Further, the “Liver Index” value is reported as 0.049 ± 0.01 in series [8] (5 mg/kg/day po) and 0.051 ± 0.017 in [8] (10 mg/kg/day po). The “Histopathological examination of liver, kidney, heart and brain samples” value in series [8] (10 mg/kg, EAC solid tumor bearing mice (40x)) is listed as “focally degenerated hepatocytes”. Further, the “Toxicity (overall statement)” value in [8] (oral, 5 and 10 mg/kg/day for 8 consecutive days) is “did not show any noticeable toxicity”. Besides, in series [9] (5 mg/kg/day po, 8 consecutive days, mean ± SD, n = 6), the “Tumor Index” value came out at 0.041 ± 0.016. For the same compound, the results for the “TGI (%)” value in series [9] (5 mg/kg/day po) and in [9] (10 mg/kg/day po) were 70.7% and 86.4%, respectively. In addition, the entries for the “Histopathological examination of EAC tumor sections (necrosis)” value in series [9] (5 mg/kg) and in series [9] (10 mg/kg) were “mild focal necrosis” and “moderate diffuse necrosis”, respectively.

Usually inhibition stands for the change of the read-out against control, counted positive when it falls.
